According to PubChem BioAssay AID1963852 (Molecular Pharmacology Branch, DTP, NCI, 2024):

Test system: 282377-053-R-J1-PDC complex spheroid viability
Experiment: Anticancer human tumor 282377-053-R-J1-PDC patient-derived colon adenocarcinoma cell line growth inhibition [POLQ]
Details: for IC50: curve of first compound; for viability, T/C: stronger effect = lower value
In short: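 Three-cell-type spheroids modelling solid tumor plus stroma served as the readout system; POL inhibitors were tested individually and in combination, concentration ranges set by clinical Cmax where known.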

[1] = second compound 0.0316 µM, first compound 0.0316 µM
[2] = second compound 0.0316 µM, first compound 0.1 µM
[3] = second compound 0.0316 µM, first compound 0.316 µM
[4] = second compound 0.0316 µM, first compound 1 µM
[5] = second compound 0.1 µM, first compound 0.0316 µM
[6] = second compound 0.1 µM, first compound 0.1 µM
[7] = second compound 0.1 µM, first compound 0.316 µM
[8] = second compound 0.1 µM, first compound 1 µM
[9] = second compound 0.316 µM, first compound 0.0316 µM
[10] = second compound 0.316 µM, first compound 0.1 µM
[11] = second compound 0.316 µM, first compound 0.316 µM
[12] = second compound 0.316 µM, first compound 1 µM
[13] = second compound 1 µM, first compound 0.0316 µM
[14] = second compound 1 µM, first compound 0.1 µM
[15] = second compound 1 µM, first compound 0.316 µM
[16] = second compound 1 µM, first compound 1 µM
[17] = second compound 3.16 µM, first compound 0.0316 µM
[18] = second compound 3.16 µM, first compound 0.1 µM
[19] = second compound 3.16 µM, first compound 0.316 µM
[20] = second compound 3.16 µM, first compound 1 µM
[21] = second compound 10 µM, first compound 0.0316 µM
[22] = second compound 10 µM, first compound 0.1 µM
[23] = second compound 10 µM, first compound 0.316 µM
[24] = second compound 10 µM, first compound 1 µM
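Note: spheroids exposed to compounds for seven days.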
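Throughout, for viability, T/C: 100% = DMSO vehicle control viability.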

## CCCS(=O)(=O)Nc1ccc(F)c(C(=O)c2c[nH]c3ncc(-c4ccc(Cl)cc4)cc23)c1F + Cc1cccc(N(C)C(=O)C2C(O)CCN2c2nc(C)cc(C(F)(F)F)c2C#N)c1
Second compound 0.0316 µM
  IC50: > 10 µM
Second compound 0.1 µM
  IC50: > 10 µM
Second compound 0.316 µM
  IC50: > 10 µM
Second compound 1 µM
  IC50: > 10 µM
Second compound 3.16 µM
  IC50: > 10 µM
Second compound 10 µM
  IC50: > 10 µM
[1]
  viability, T/C: 95.1%
[2]
  viability, T/C: 77.8%
[3]
  viability, T/C: 73.6%
[4]
  viability, T/C: 67.4%
Second compound 0.0316 µM, first compound 3.16 µM
  viability, T/C: 76.2%
Second compound 0.0316 µM, first compound 10 µM
  viability, T/C: 64.3%
[5]
  viability, T/C: 91.8%
[6]
  viability, T/C: 88.4%
[7]
  viability, T/C: 66.3%
[8]
  viability, T/C: 73.2%
Second compound 0.1 µM, first compound 3.16 µM
  viability, T/C: 75.7%
Second compound 0.1 µM, first compound 10 µM
  viability, T/C: 69.7%
[9]
  viability, T/C: 92.5%
[10]
  viability, T/C: 85.6%
[11]
  viability, T/C: 73%
[12]
  viability, T/C: 77.5%
Second compound 0.316 µM, first compound 3.16 µM
  viability, T/C: 70%
Second compound 0.316 µM, first compound 10 µM
  viability, T/C: 61.8%
[13]
  viability, T/C: 86.9%
[14]
  viability, T/C: 91.9%
[15]
  viability, T/C: 90.5%
[16]
  viability, T/C: 70.3%
Second compound 1 µM, first compound 3.16 µM
  viability, T/C: 68%
Second compound 1 µM, first compound 10 µM
  viability, T/C: 61.4%
[17]
  viability, T/C: 92.1%
[18]
  viability, T/C: 92.9%
[19]
  viability, T/C: 72.1%
[20]
  viability, T/C: 64.3%
Second compound 3.16 µM, first compound 3.16 µM
  viability, T/C: 61.5%
Second compound 3.16 µM, first compound 10 µM
  viability, T/C: 65%
[21]
  viability, T/C: 81.6%
[22]
  viability, T/C: 81.2%
[23]
  viability, T/C: 77.1%
[24]
  viability, T/C: 62.8%
Second compound 10 µM, first compound 3.16 µM
  viability, T/C: 73.5%
Second compound 10 µM, first compound 10 µM
  viability, T/C: 58.4%

## CCc1c2c(nc3ccc(O)cc13)-c1cc3c(c(=O)n1C2)COC(=O)[C@]3(O)CC + Cc1cccc(N(C)C(=O)C2C(O)CCN2c2nc(C)cc(C(F)(F)F)c2C#N)c1
Second compound 0.0316 µM
  IC50: 0.0503 µM
Second compound 0.1 µM
  IC50: 0.18 µM
Second compound 0.316 µM
  IC50: 0.0715 µM
Second compound 1 µM
  IC50: 0.116 µM
Second compound 3.16 µM
  IC50: 0.0702 µM
Second compound 10 µM
  IC50: 0.0575 µM
Second compound 0.0316 µM, first compound 0.00316 µM
  viability, T/C: 122%
Second compound 0.0316 µM, first compound 0.01 µM
  viability, T/C: 76.2%
[1]
  viability, T/C: 51.8%
[2]
  viability, T/C: 49.2%
[3]
  viability, T/C: 40.1%
[4]
  viability, T/C: 23.2%
Second compound 0.1 µM, first compound 0.00316 µM
  viability, T/C: 97.1%
Second compound 0.1 µM, first compound 0.01 µM
  viability, T/C: 81.6%
[5]
  viability, T/C: 72%
[6]
  viability, T/C: 62.4%
[7]
  viability, T/C: 41.5%
[8]
  viability, T/C: 21.8%
Second compound 0.316 µM, first compound 0.00316 µM
  viability, T/C: 102%
Second compound 0.316 µM, first compound 0.01 µM
  viability, T/C: 74.9%
[9]
  viability, T/C: 54.4%
[10]
  viability, T/C: 52%
[11]
  viability, T/C: 41.4%
[12]
  viability, T/C: 25.7%
Second compound 1 µM, first compound 0.00316 µM
  viability, T/C: 110%
Second compound 1 µM, first compound 0.01 µM
  viability, T/C: 86.8%
[13]
  viability, T/C: 53.5%
[14]
  viability, T/C: 51.6%
[15]
  viability, T/C: 44.8%
[16]
  viability, T/C: 17.2%
Second compound 3.16 µM, first compound 0.00316 µM
  viability, T/C: 104%
Second compound 3.16 µM, first compound 0.01 µM
  viability, T/C: 69.3%
[17]
  viability, T/C: 63.5%
[18]
  viability, T/C: 44.4%
[19]
  viability, T/C: 40.8%
[20]
  viability, T/C: 22.5%
Second compound 10 µM, first compound 0.00316 µM
  viability, T/C: 106%
Second compound 10 µM, first compound 0.01 µM
  viability, T/C: 87.5%
[21]
  viability, T/C: 49.5%
[22]
  viability, T/C: 42.5%
[23]
  viability, T/C: 37.4%
[24]
  viability, T/C: 16.7%
